Results from patent publication US20230085307A1, “PYRIDAZINONE COMPOUND AND HERBICIDE” (NISSAN CHEMICAL CORPORATION, priority 2019, published 2023).

Columns and labels:
persian speedwell [1] = experiment: Test Example 5: herbicidal effect by foliage application, plastic box (Table 20, symbol R); format: in vivo, Persian speedwell (Veronica persica); settings: foliage application, 320 g/ha, 3 weeks after application
Outline: (§1)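 Sow seeds spot-wise in sterilized diluvial soil; cover with ~1.5 cm soil. Grow 14 days in greenhouse, 25° C. to 30° C. Spray foliage with emulsion diluted to predetermined amount. Rate effect after 3 weeks.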

rice flat sedge = experiment: Test Example 3: herbicidal effect by foliage application, Wagner pot (Table 18, symbol E); format: in vivo, rice flat sedge (Cyperus iria); settings: 320 g/ha
Outline: (§2)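 Plants were sown in alluvial soil held under 0.1–0.5 cm standing water and grown 14 days in a greenhouse at 25–30 °C. An emulsifiable formulation, water-diluted to the set dose, was then sprayed onto the foliage, and effects were scored three weeks later using previously defined criteria.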

Chinese sprangletop = experiment: Test Example 3: herbicidal effect by foliage application, Wagner pot (Table 18, symbol D); format: in vivo, chinese sprangletop (Leptochloa chinensis); settings: 320 g/ha
Outline: as §2

Italian ryegrass [2] = experiment: Test Example 5: herbicidal effect by foliage application, plastic box (Table 20, symbol K); format: in vivo, Italian ryegrass (Lolium multiflorum); settings: foliage application, 320 g/ha, 3 weeks after application
Outline: as §1

redroot pigweed = experiment: Test Example 4: herbicidal effect by soil treatment (Table 19, symbol N); format: in vivo, redroot pigweed (Amaranthus retroflexus); settings: 320 g/ha
Outline: (§3)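 Applied as a water-diluted emulsion, the compound was sprayed onto soil covering newly sown seeds. Evaluation came three weeks after application, in a greenhouse held at 25° C. to 30° C.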

windgrass [3] = experiment: Test Example 5: herbicidal effect by foliage application, plastic box (Table 20, symbol L); format: in vivo, windgrass (Apera spica-venti); settings: foliage application, 320 g/ha, 3 weeks after application
Outline: as §1

blackgrass [4] = experiment: Test Example 5: herbicidal effect by foliage application, plastic box (Table 20, symbol J); format: in vivo, blackgrass (Alopecurus myosuroides); settings: foliage application, 320 g/ha, 3 weeks after application
Outline: as §1

velvetleaf [5] = experiment: Test Example 5: herbicidal effect by foliage application, plastic box (Table 20, symbol M); format: in vivo, velvetleaf (Abutilon theophrasti); settings: foliage application, 320 g/ha, 3 weeks after application
Outline: as §1

wild oat [6] = experiment: Test Example 4: herbicidal effect by soil treatment (Table 19, symbol I); format: in vivo, wild oat (Avena fatua); settings: 320 g/ha
Outline: as §3

windgrass [7] = experiment: Test Example 4: herbicidal effect by soil treatment (Table 19, symbol L); format: in vivo, windgrass (Apera spica-venti); settings: 320 g/ha
Outline: as §3

velvetleaf [8] = experiment: Test Example 4: herbicidal effect by soil treatment (Table 19, symbol M); format: in vivo, velvetleaf (Abutilon theophrasti); settings: 320 g/ha
Outline: as §3

chickweed = experiment: Test Example 4: herbicidal effect by soil treatment (Table 19, symbol P); format: in vivo, common chickweed (Stellaria media); settings: 320 g/ha
Outline: as §3

southern crabgrass [9] = experiment: Test Example 5: herbicidal effect by foliage application, plastic box (Table 20, symbol F); format: in vivo, southern crabgrass (Digitaria ciliaris); settings: foliage application, 320 g/ha, 3 weeks after application
Outline: as §1

green foxtail [10] = experiment: Test Example 5: herbicidal effect by foliage application, plastic box (Table 20, symbol G); format: in vivo, green foxtail (Setaria viridis); settings: foliage application, 320 g/ha, 3 weeks after application
Outline: as §1

late watergrass = experiment: Test Example 1: herbicidal activity, application before weed generation under submerged conditions (Table 16, symbol A); format: in vivo, late watergrass (Echinochloa oryzicola); settings: 320 g/ha applied herbicide
Outline: (§4)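 Submerged Wagner pots (alluvial soil, 4 cm water) sown with weed seeds and planted with 2.5-leaf rice seedlings; emulsifiable concentrate diluted in water applied to water surface on sowing day. Held in greenhouse at 25-30 °C; injury scored 0-5 by herbicidal rate after three weeks.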

Japanese bulrush = experiment: Test Example 1: herbicidal activity, application before weed generation under submerged conditions (Table 16, symbol B); format: in vivo, Japanese bulrush (Schoenoplectus juncoides); settings: 320 g/ha applied herbicide
Outline: as §4

blackgrass [11] = experiment: Test Example 4: herbicidal effect by soil treatment (Table 19, symbol J); format: in vivo, blackgrass (Alopecurus myosuroides); settings: 320 g/ha
Outline: as §3

wild oat [12] = experiment: Test Example 5: herbicidal effect by foliage application, plastic box (Table 20, symbol I); format: in vivo, wild oat (Avena fatua); settings: foliage application, 320 g/ha, 3 weeks after application
Outline: as §1

oval-leafed pondweed = experiment: Test Example 1: herbicidal activity, application before weed generation under submerged conditions (Table 16, symbol C); format: in vivo, oval-leafed pondweed (Monochoria vaginalis); settings: 320 g/ha applied herbicide
Outline: as §4

barnyard grass [13] = experiment: Test Example 5: herbicidal effect by foliage application, plastic box (Table 20, symbol H); format: in vivo, barnyard grass (Echinochloa crus-galli); settings: foliage application, 320 g/ha, 3 weeks after application
Outline: as §1

Italian ryegrass [14] = experiment: Test Example 4: herbicidal effect by soil treatment (Table 19, symbol K); format: in vivo, Italian ryegrass (Lolium multiflorum); settings: 320 g/ha
Outline: as §3

lambsquarters [15] = experiment: Test Example 4: herbicidal effect by soil treatment (Table 19, symbol O); format: in vivo, lambsquarters (Chenopodium album); settings: 320 g/ha
Outline: as §3

green foxtail [16] = experiment: Test Example 4: herbicidal effect by soil treatment (Table 19, symbol G); format: in vivo, green foxtail (Setaria viridis); settings: 320 g/ha
Outline: as §3

lambsquarters [17] = experiment: Test Example 5: herbicidal effect by foliage application, plastic box (Table 20, symbol O); format: in vivo, lambsquarters (Chenopodium album); settings: foliage application, 320 g/ha, 3 weeks after application
Outline: as §1

barnyard grass [18] = experiment: Test Example 3: herbicidal effect by foliage application, Wagner pot (Table 18, symbol H); format: in vivo, barnyard grass (Echinochloa crus-galli); settings: 320 g/ha
Outline: as §2

barnyard grass [19] = experiment: Test Example 4: herbicidal effect by soil treatment (Table 19, symbol H); format: in vivo, barnyard grass (Echinochloa crus-galli); settings: 320 g/ha
Outline: as §3

southern crabgrass [20] = experiment: Test Example 4: herbicidal effect by soil treatment (Table 19, symbol F); format: in vivo, southern crabgrass (Digitaria ciliaris); settings: 320 g/ha
Outline: as §3

persian speedwell [21] = experiment: Test Example 4: herbicidal effect by soil treatment (Table 19, symbol R); format: in vivo, Persian speedwell (Veronica persica); settings: 320 g/ha
Outline: as §3

Cc1nn(C)c(=O)c(-c2c(-c3ccc(F)cc3)sc3ccc(F)cc23)c1OC(=O)c1ccccc1Cl [2-005]
effect on persian speedwell (R) (persian speedwell [1]): 4 (Herbicidal rate of 70% or more and less than 90%)
herbicidal effect on E (rice flat sedge), rating 0-5 (rice flat sedge): 5 (Herbicidal rate of 90% or more (almost completely withered))
herbicidal effect on D (Chinese sprangletop), rating 0-5 (Chinese sprangletop): 3 (Herbicidal rate of 40% or more and less than 70%)
effect on Italian ryegrass (K) (Italian ryegrass [2]): 4 (Herbicidal rate of 70% or more and less than 90%)
herbicidal effect rating, N: redroot pigweed (redroot pigweed): 4 (Herbicidal rate of 70% or more and less than 90%)
effect on windgrass (L) (windgrass [3]): 0 (Herbicidal rate of 5% or less (almost no effect))
effect on blackgrass (J) (blackgrass [4]): 3 (Herbicidal rate of 40% or more and less than 70%)
effect on velvetleaf (M) (velvetleaf [5]): 4 (Herbicidal rate of 70% or more and less than 90%)
herbicidal effect rating, I: wild oat (wild oat [6]): 0 (Herbicidal rate of 5% or less (almost no effect))
herbicidal effect rating, L: windgrass (windgrass [7]): 0 (Herbicidal rate of 5% or less (almost no effect))
herbicidal effect rating, M: velvetleaf (velvetleaf [8]): 4 (Herbicidal rate of 70% or more and less than 90%)
herbicidal effect rating, P: chickweed (chickweed): 4 (Herbicidal rate of 70% or more and less than 90%)
effect on southern crabgrass (F) (southern crabgrass [9]): 5 (Herbicidal rate of 90% or more (almost completely withered))
effect on green foxtail (G) (green foxtail [10]): 5 (Herbicidal rate of 90% or more (almost completely withered))
Herbicidal effect on A: late watergrass (grade 0-5) (late watergrass): 0 (Herbicidal rate of 5% or less (almost no effect))
Herbicidal effect on B: Japanese bulrush (grade 0-5) (Japanese bulrush): 2 (Herbicidal rate of 20% or more and less than 40%)
herbicidal effect rating, J: blackgrass (blackgrass [11]): 0 (Herbicidal rate of 5% or less (almost no effect))
effect on wild oat (I) (wild oat [12]): 0 (Herbicidal rate of 5% or less (almost no effect))
Herbicidal effect on C: oval-leafed pondweed (grade 0-5) (oval-leafed pondweed): 2 (Herbicidal rate of 20% or more and less than 40%)
effect on barnyard grass (H) (barnyard grass [13]): 4 (Herbicidal rate of 70% or more and less than 90%)
herbicidal effect rating, K: Italian ryegrass (Italian ryegrass [14]): 4 (Herbicidal rate of 70% or more and less than 90%)
herbicidal effect rating, O: lambsquarters (lambsquarters [15]): 4 (Herbicidal rate of 70% or more and less than 90%)
herbicidal effect rating, G: green foxtail (green foxtail [16]): 5 (Herbicidal rate of 90% or more (almost completely withered))
effect on lambsquarters (O) (lambsquarters [17]): 3 (Herbicidal rate of 40% or more and less than 70%)
herbicidal effect on H (barnyard grass), rating 0-5 (barnyard grass [18]): 5 (Herbicidal rate of 90% or more (almost completely withered))
herbicidal effect rating, H: barnyard grass (barnyard grass [19]): 4 (Herbicidal rate of 70% or more and less than 90%)
herbicidal effect rating, F: southern crabgrass (southern crabgrass [20]): 5 (Herbicidal rate of 90% or more (almost completely withered))
herbicidal effect rating, R: persian speedwell (persian speedwell [21]): 3 (Herbicidal rate of 40% or more and less than 70%)

CCCC(=O)Oc1c(C)nn(C)c(=O)c1-c1c(-c2ccc(C(C)(C)C)cc2)sc2ccc(F)cc12 [2-017]
effect on persian speedwell (R) (persian speedwell [1]): 3 (Herbicidal rate of 40% or more and less than 70%)
herbicidal effect on E (rice flat sedge), rating 0-5 (rice flat sedge): 2 (Herbicidal rate of 20% or more and less than 40%)
herbicidal effect on D (Chinese sprangletop), rating 0-5 (Chinese sprangletop): 3 (Herbicidal rate of 40% or more and less than 70%)
effect on Italian ryegrass (K) (Italian ryegrass [2]): 0 (Herbicidal rate of 5% or less (almost no effect))
herbicidal effect rating, N: redroot pigweed (redroot pigweed): 4 (Herbicidal rate of 70% or more and less than 90%)
effect on windgrass (L) (windgrass [3]): 0 (Herbicidal rate of 5% or less (almost no effect))
effect on blackgrass (J) (blackgrass [4]): 0 (Herbicidal rate of 5% or less (almost no effect))
effect on velvetleaf (M) (velvetleaf [5]): 1 (Herbicidal rate of 5% or more and less than 20%)
herbicidal effect rating, I: wild oat (wild oat [6]): 0 (Herbicidal rate of 5% or less (almost no effect))
herbicidal effect rating, L: windgrass (windgrass [7]): 0 (Herbicidal rate of 5% or less (almost no effect))
herbicidal effect rating, M: velvetleaf (velvetleaf [8]): 0 (Herbicidal rate of 5% or less (almost no effect))
herbicidal effect rating, P: chickweed (chickweed): 0 (Herbicidal rate of 5% or less (almost no effect))
effect on southern crabgrass (F) (southern crabgrass [9]): 0 (Herbicidal rate of 5% or less (almost no effect))
effect on green foxtail (G) (green foxtail [10]): 1 (Herbicidal rate of 5% or more and less than 20%)
Herbicidal effect on A: late watergrass (grade 0-5) (late watergrass): 2 (Herbicidal rate of 20% or more and less than 40%)
Herbicidal effect on B: Japanese bulrush (grade 0-5) (Japanese bulrush): 0 (Herbicidal rate of 5% or less (almost no effect))
herbicidal effect rating, J: blackgrass (blackgrass [11]): 0 (Herbicidal rate of 5% or less (almost no effect))
effect on wild oat (I) (wild oat [12]): 0 (Herbicidal rate of 5% or less (almost no effect))
Herbicidal effect on C: oval-leafed pondweed (grade 0-5) (oval-leafed pondweed): 0 (Herbicidal rate of 5% or less (almost no effect))
effect on barnyard grass (H) (barnyard grass [13]): 3 (Herbicidal rate of 40% or more and less than 70%)
herbicidal effect rating, K: Italian ryegrass (Italian ryegrass [14]): 0 (Herbicidal rate of 5% or less (almost no effect))
herbicidal effect rating, O: lambsquarters (lambsquarters [15]): 2 (Herbicidal rate of 20% or more and less than 40%)
herbicidal effect rating, G: green foxtail (green foxtail [16]): 1 (Herbicidal rate of 5% or more and less than 20%)
effect on lambsquarters (O) (lambsquarters [17]): 1 (Herbicidal rate of 5% or more and less than 20%)
herbicidal effect on H (barnyard grass), rating 0-5 (barnyard grass [18]): 5 (Herbicidal rate of 90% or more (almost completely withered))
herbicidal effect rating, H: barnyard grass (barnyard grass [19]): 2 (Herbicidal rate of 20% or more and less than 40%)
herbicidal effect rating, F: southern crabgrass (southern crabgrass [20]): 0 (Herbicidal rate of 5% or less (almost no effect))
herbicidal effect rating, R: persian speedwell (persian speedwell [21]): 0 (Herbicidal rate of 5% or less (almost no effect))
